Laboratory results as given in patent US20230303513A1, “OXOPYRROLIDINE UREA FPR2 AGONISTS” (BRISTOL-MYERS SQUIBB COMPANY, priority 2020, published 2023).

How the values were obtained:
human FPR1 = human FPR1 (Homo sapiens (Human), UniProt P21462); experiment: FPR1 cyclic adenosine monophosphate (cAMP) assay; format: cell-based; conditions: CHO cells overexpressing human FPR1; forskolin 10 μM, IBMX 200 μM; inhibition of cAMP production, HTRF; read-out: hFPR1 cAMP EC50
Source text: (§1) N-formyl peptide receptors (FPRs) are a family of chemo attractant receptors that facilitate leukocyte response during inflammation. FPRs belong to the seven-transmembrane G protein-coupled receptor superfamily and are linked to inhibitory G-proteins (Gi). Three family members (FPR1, FPR2 and FPR3) have been identified in humans and are predominantly found in myeloid cells with varied distribution and have also been reported in multiple organs and tissues. After agonist binding, the FPRs activate a multitude of physiological pathways, such as intra cellular signaling transduction, Ca^21 mobilization and transcription. The family interacts with a diverse set of ligands that includes proteins, polypeptides and fatty acid metabolites which activate both pro-inflammatory and pro-resolution downstream responses. FPR2 and FPR1 Cyclic Adenosine Monophosphate (cAMP) Assays were used to measure the activity of the compounds in this patent.
(§2) FPR2 and FPR1 Cyclic Adenosine Monophosphate (cAMP) Assays. A mixture of forskolin (5 μM final for FPR2 or 10 μM final for FPR1) and IBMX (200 μM final) were added to 384-well Proxiplates (Perkin-Elmer) pre-dotted with test compounds in DMSO (1% final) at final concentrations in the range of 0.020 nM to 100 μM. Chinese Hamster Ovary cells (CHO) overexpressing human FPR1 or human FPR2 receptors were cultured in F-12 (Ham's) medium supplemented with 10% qualified FBS, 250 μg/ml zeocin and 300 μg/ml hygromycin (Life Technologies). Reactions were initiated by adding 2,000 human FPR2 cells per well or 4,000 human FPR1 cells per well in Dulbecco's PBS (with calcium and magnesium) (Life Technologies) supplemented with 0.1% BSA (Perkin-Elmer). The reaction mixtures were incubated for 30 min at room temperature. The level of intracellular cAMP was determined using the HTRF HiRange cAMP assay reagent kit (Cisbio) according to manufacturer's instruction. Solutions of cryptate conjugated anti-cAMP and d2 flurorophore-labelled cAMP were made in a supplied lysis buffer separately. Upon completion of the reaction, the cells were lysed with equal volume of the d2-cAMP solution and anti-cAMP solution. After a 1-h room temperature incubation, time-resolved fluorescence intensity was measured using the Envision (Perkin-Elmer) at 400 nm excitation and dual emission at 590 nm and 665 nm. A calibration curve was constructed with an external cAMP standard at concentrations ranging from 1 μM to 0.1 μM by plotting the fluorescent intensity ratio from 665 nm emission to the intensity from the 590 nm emission against cAMP concentrations. The potency and activity of a compound to inhibit cAMP production was then determined by fitting to a 4-parametric logistic equation from a plot of cAMP level versus compound concentrations.

human FPR2 = human FPR2 (Homo sapiens (Human), UniProt P25090); experiment: FPR2 cyclic adenosine monophosphate (cAMP) assay; format: cell-based; conditions: CHO cells overexpressing human FPR2; forskolin 5 μM, IBMX 200 μM; inhibition of cAMP production, HTRF; read-out: hFPR2 cAMP2 EC50
Source text: as §1, §2

human FPR1, sequence (P21462 whole entry): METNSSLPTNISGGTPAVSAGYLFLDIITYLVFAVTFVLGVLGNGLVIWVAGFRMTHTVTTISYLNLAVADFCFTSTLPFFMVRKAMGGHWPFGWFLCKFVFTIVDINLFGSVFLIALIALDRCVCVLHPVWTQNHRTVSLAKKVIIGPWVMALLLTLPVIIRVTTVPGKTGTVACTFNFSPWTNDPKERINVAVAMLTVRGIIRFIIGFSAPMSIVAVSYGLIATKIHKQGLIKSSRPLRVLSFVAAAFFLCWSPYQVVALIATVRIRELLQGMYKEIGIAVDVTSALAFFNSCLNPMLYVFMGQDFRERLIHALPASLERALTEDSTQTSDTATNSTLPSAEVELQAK
human FPR2, sequence (P25090 whole entry): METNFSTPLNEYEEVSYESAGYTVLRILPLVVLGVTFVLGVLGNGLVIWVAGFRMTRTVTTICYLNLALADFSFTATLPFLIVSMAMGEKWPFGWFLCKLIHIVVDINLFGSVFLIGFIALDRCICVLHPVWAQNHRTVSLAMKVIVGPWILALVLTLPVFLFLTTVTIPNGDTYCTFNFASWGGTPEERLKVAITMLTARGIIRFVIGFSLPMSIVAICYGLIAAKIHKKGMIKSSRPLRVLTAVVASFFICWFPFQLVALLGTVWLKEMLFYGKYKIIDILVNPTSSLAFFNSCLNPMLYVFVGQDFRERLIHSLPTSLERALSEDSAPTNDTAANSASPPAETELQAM

Row | Compound | EC50 (human FPR1) [nM] | EC50 (human FPR2) [nM]
1 | COCCn1cccc(N2C[C@@H](c3c(F)cc(OC)cc3F)[C@H](NC(=O)NC3CCc4cc(Cl)ccc4C3)C2=O)c1=O (some centres unmarked) [Example 20] | 38.9 | 2.6
2 | COCCn1cccc(N2C[C@@H](c3ccc(Cl)cc3)[C@H](NC(=O)NC3CCc4cc(OC)ccc4C3)C2=O)c1=O (some centres unmarked) [Example 55] | 0.5 | 24
3 | COc1cc(F)c([C@@H]2CN(c3c(OC)ccn(C)c3=O)C(=O)[C@H]2NC(=O)NC2CCc3cc(Cl)ccc3C2)c(F)c1 (some centres unmarked) [Example 8] | 0.5 | 0.6
4 | COCCn1cccc(N2C[C@@H](c3ccc(OC)cc3)[C@H](NC(=O)NC3CCc4cc(OC)ccc4C3)C2=O)c1=O (some centres unmarked) [Example 11] | 0.1 | 0.8
5 | COCCn1cccc(N2C[C@@H](c3ccc(OC)cc3)[C@H](NC(=O)NC3CCc4cc(OC)ccc4C3)C2=O)c1=O (some centres unmarked) [Example 42] | 1.7 | 5.8
6 | COc1cc(F)c([C@@H]2CN(c3c(C)ccn(CCO)c3=O)C(=O)[C@H]2NC(=O)NC2CCc3cc(OC)ccc3C2)c(F)c1 (single isomer, unassigned) [Example 83] | 12 | 1
7 | COc1cc(F)c([C@@H]2CN(c3nccc(NC4CCOC4)c3C(F)(F)F)C(=O)[C@H]2NC(=O)N[C@H]2CC[C@H](C(F)F)CC2)c(F)c1 (single isomer, unassigned) [Example 99] | 730 | 6.2
8 | COc1cc(F)c([C@@H]2CN(c3nccc(N4CCN5CCCC5C4)c3C(F)(F)F)C(=O)[C@H]2NC(=O)N[C@H]2CC[C@H](C(F)F)CC2)c(F)c1 (single isomer, unassigned) [Example 102] | 1000 | 7.9
9 | CCn1cccc(N2C[C@@H](c3c(F)cc(OC)cc3F)[C@H](NC(=O)NC3CCc4cc(OC)ccc4C3(C)C)C2=O)c1=O (some centres unmarked) [Example 52] | 593 | 13
10 | COCCn1cccc(N2C[C@@H](c3c(F)cc(OC)cc3F)[C@H](NC(=O)NC3CCc4cc(OC)ccc4C3(C)C)C2=O)c1=O (some centres unmarked) [Example 54] | 8.8 | 19
11 | COCCn1cccc(N2C(=O)[C@@H](NC(=O)NC3CCc4cc(OC)ccc4C3(C)C)[C@H](c3c(F)cc(OC)cc3F)[C@@H]2C)c1=O (some centres unmarked) [Example 62] | 23 | 36

Now from value to molecule:

Row | EC50 (human FPR1) [nM] | EC50 (human FPR2) [nM] | Compound
12 | 0.3 | 4.2 | COCCn1cccc(N2C[C@@H](c3c(F)cc(OC)cc3F)[C@H](NC(=O)NC3CCc4cc(OC)ccc4C3)C2=O)c1=O (some centres unmarked) [Example 34]
13 | 1.5 | 7.1 | COc1cc(F)c([C@@H]2CN(c3ncccc3C(F)(F)F)C(=O)[C@H]2NC(=O)NC2CCc3cc(OC)ccc3C2)c(F)c1 (some centres unmarked) [Example 46]
14 | 20 | 6 | COCC(CO)n1cccc(N2C[C@@H](c3c(F)cc(OC)cc3F)[C@H](NC(=O)NC3CCc4cc(OC)ccc4C3)C2=O)c1=O (single isomer, unassigned) [Example 3]
15 | 13.2 | 1.5 | COc1cc(F)c([C@H]2[C@H](NC(=O)NC3CCc4cc(OC)ccc4C3)C(=O)N(c3ncccc3OC)[C@H]2C)c(F)c1 (some centres unmarked) [Example 15]
16 | 5.3 | 4 | COc1cc(F)c([C@@H]2CN(c3cccn(C(F)F)c3=O)C(=O)[C@H]2NC(=O)NC2CCc3cc(OC)ccc3C2)c(F)c1 (single isomer, unassigned) [Example 95]
17 | 2.5 | 2.9 | COCCn1cccc(N2C(=O)[C@@H](NC(=O)NC3CCc4cc(Cl)ccc4C3)[C@H](c3c(F)cc(OC)cc3F)[C@@H]2C)c1=O (some centres unmarked) [Example 27]
18 | 24.6 | 13 | COCCn1cccc(N2C[C@@H](c3c(F)cc(OC)cc3F)[C@H](NC(=O)NC3CCc4cc(OC)ccc4C3)C2=O)c1=O (some centres unmarked) [Example 53]
19 | 0.8 | 9.9 | COCC(CO)n1cccc(N2C[C@@H](c3c(F)cc(OC)cc3F)[C@H](NC(=O)NC3CCc4cc(OC)ccc4C3)C2=O)c1=O (some centres unmarked) [Example 82]
